# Laboratory results taken from patent publication US20250002435A1, “ARYLATED FENCHONE DERIVATIVES, COMPOSITIONS COMPRISING THEM, PROCESSES FOR THEIR PREPARATION AND USES THEREOF” (priority 2021, published 2025).
# Legend:
# [1] = tested on: TNFα; test: serum TNFα ELISA 24 h after zymosan injection; assay type: in vivo, mouse; details: 25 mg/kg, serum 24 h after zymosan
# Description: Blood was collected 24 h after zymosan injection, and the sera were assayed for TNFα using a mouse TNFα ELISA kit (R&D Systems, Minneapolis, MN, USA), according to the manufacturer's instructions.
# [2] = tested on: medial meniscal tear (MMT) post-traumatic OA; test: rat medial meniscal tear (MMT) model, body weight and dynamic weight bearing; assay type: in vivo
# Description: Initially, the required amount of HU308 dissolved in ethanol followed by addition of […] with vigorous mechanical agitation to form viscous micelle solution. Finally, the micelle solution was diluted in ice cold saline for injection or culture assays. Vehicle solution consisted of ethanol, cremophor and saline at 1:1:18 ratio. For intra-articular (IA) dosing 50 μL was injected into the tibiofemoral joint, at two doses; 8 and 24 μg/mL. Vehicle control contained 1:1:18 ethanol/Cremophor/saline, while positive control was of IA administered 60 μg/mL FGF-18 (R&D Systems, catalogue No. 8988-F18-050, lot No. BVE0521071) for IA dosing at 50 μL/knee.
# (§1) The rat OA model employed was surgically-induced medial meniscal tear (MMT), wherein rats were anesthetized with Isoflurane (VetOne, catalogue No. 502017), and the right knee area was prepared for surgery. A skin incision was made over the medial aspect of the knee, and the medial collateral ligament was exposed by blunt dissection and then transected. The medial meniscus was cut through the full thickness to simulate a complete tear. Skin and subcutis were closed with 4-0 Coated Vicryl (polyglactin 910) Violet Braided Suture (Ethicon, catalogue No. J399H), and slight hand pressure was applied to the wound for approximately 3 minutes for hemostasis. Subcutaneous (SC) dose of buprenorphine (0.05 mg/kg) administered after the animal awakened post-surgery. Rats were weighed daily on study days −1 through 7 and again on days 14, 21, and 28 (prior to necropsy). […] The animals were euthanized for necropsy 28 days post-surgery, following Isoflurane anesthesia, and bled to exsanguination followed by bilateral pneumothorax.
# [3] = tested on: medial meniscal tear (MMT) post-traumatic OA; test: rat MMT model, histopathology of medial tibial joint 28 days post MMT; assay type: in vivo; details: for osteophyte measurements and scores: vs vehicle
# Description: as §1
# Right knees were collected from all animals and trimmed of muscle and patellae. The trimmed joints were placed in 10% neutral buffered formalin (NBF) for histologic processing and evaluation. Samples were fixed for 3 days in 4% paraformaldehyde and decalcified for 21 days in 10% EDTA, pH=7.5. Then following dehydration in a graded series of ethanol washes, joints were embedded in paraffin and sectioned to 7 μm slices, following trimming off 1 mm until the tibiofemoral compartments are fully observed. Sections were obtained from each knee and stained with toluidine blue (0.04% in 0.2 M acetate buffer, Ph=4.0), based on a modified version of the methods used in Schmitz, et al. (2010), (11). Histopathology was carried out using an ocular micrometer. The following structural histological characterization was carried out:
# Regional differences across the tibial plateau were taken into consideration by dividing each section into three zones: (1) outside, (2) middle, and (3) inside. In the surgical OA model, the outside (zone-1) and middle (zone-2) thirds are most severely affected, and milder changes are present on the inside third (zone 3). When zones were scored individually, scores were assigned based on percent area of the zone affected. General cartilage degeneration including chondrocyte death/loss, proteoglycan (PG) loss, and collagen loss or fibrillation. Zones were scored individually (0-5; 5 representing sever damage; SD3), and a sum of all three zones was calculated (termed “Total Joint scores”).
# The zone related cartilage depth is calculated from the projected articular surface tot the tidemark. Reduced ratios embody less detected cartilage width vs projected cartilage with area, per zone.
# Osteophyte thickness (tidemark to furthest point extending toward synovium) was measured and scored according to a range from 0-5, as in SD4.
# Damage to the calcified cartilage layer and subchondral bone was scored using the criteria in SD5. Generally damage was considered as invagination of deep zone cartilage into the subchondral bone layer.
# […] Descriptions of other changes (typically fibrosis, or acute inflammation/neutrophil infiltration extending into the lateral compartment usually associated with IA treatments) were also provided, if present.
structure (smiles),measurement,setting,value
"CCCCCCC(C)(C)c1cc(OC)c([C@]2(O)C3(C)CCC(C3)C2(C)C)c(OC)c1 (some centres unmarked) [Compound 1d, 2-(2,6′-dimethoxy-4′-(2″-methyloctan-2″-yl)phenyl)-1,3,3-trimethyl-bicyclo[2.2.1]heptan-2-ol]",levels of TNF-α,[1],reduced significantly
same,"dynamic weight bearing, left to right load bearing",[2]; 1D high dose 24 μg/mL IA,statistically insignificant levels vs sham and vehicle
same,change in rat weight from 4 days to 28 days post MMT,"[2]; 1D high dose 24 μg/mL IA, vs Vehicle and FGF18 groups",slight but significant increase
same,"dynamic weight bearing, left to right load bearing",[2]; 1D low dose 8 μg/mL IA,increased left to right lad bearing vs sham
same,mean zonal depth ratios,[3]; 1D high dose 24 μg/mL IA,reduced depth ratios
same,zone 3 cartilage degeneration score,[3]; 1D high dose 24 μg/mL IA,less degeneration scores which were statistically significant
same,total zonal cartilage degeneration scores,"[3]; 1D high dose 24 μg/mL IA, vs 1D low dose and Vehicle",significantly reduced degenerative scores
same,osteophyte measurements and scores,[3]; 1D high dose 24 μg/mL IA,didn't display any differences
same,synovitis scores,[3]; 1D low dose 8 μg/mL IA,higher
same,zone 3 cartilage degeneration score,[3]; 1D low dose 8 μg/mL IA,less degeneration scores which were statistically significant
same,osteophyte measurements and scores,[3]; 1D low dose 8 μg/mL IA,didn't display any differences
